Results as given in US20240034731A1, “AZA-QUINAZOLINE COMPOUNDS AND METHODS OF USE” (Iambic Therapeutics, Inc., priority 2022, published 2024).

Experiments:
OVCAR-3 cells = experiment: Cell Growth Inhibition, OVCAR-3 (CellTiterGlo, 6 days); format: cell-based; details: Homo sapiens, 144 h, OVCAR-3, 6-day treatment
In short: (§1)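 IC50 from four-parameter, variable-slope fits of % growth inhibition, derived from CellTiterGlo 2.0 luminescence relative to control. Compounds, usually 10-10,000 nM in half-log steps, stayed 6 days at 37 °C, 5% CO2 with 500 MCF-7 or OVCAR-3 cells/well in 10% FBS RPMI.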

CDK4/Cyclin D1 = CDK4/Cyclin D1 (Homo sapiens (Human), UniProt P11802); experiment: CDK4/Cyclin D1 CHEF Assay (AQT0258 peptide); format: biochemical; details: 200 uM ATP, read-out: CDK4/ CyclinD1 AQT IC50
In short: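 Sox-labelled peptide AQT0258 phosphorylation read as chelation-enhanced fluorescence (ex 360/em 485 nm) with Mg(II). Enzyme preincubated with inhibitor 30 min at 22°C, substrate added, 3 h at 22°C; IC50 from four-parameter fit of fractional velocity versus inhibitor concentration.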

MCF-7 cells = experiment: Cell Growth Inhibition, MCF-7 (CellTiterGlo, 6 days); format: cell-based; details: Homo sapiens, MCF7, 144 h, MCF-7, 6-day treatment
In short: as §1

CDK2/Cyclin E1 = CDK2/Cyclin E1 (Homo sapiens (Human), UniProt P24941); experiment: CDK2/Cyclin E1 Full length ADP-Glo Kinase Assay; format: biochemical; details: 20 uM ATP, read-out: CDK2/ CyclinE1 IC50
In short: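 ADP-Glo luminescence (ATP depletion, then ADP-to-light conversion) quantified kinase turnover after a 90 min room-temperature reaction started by ATP/substrate, following 30 min enzyme–inhibitor preincubation. Enzyme: full-length CDK2/cyclin E1; IC50 fitted with a four-parameter equation on fractional velocity.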

CDK6/Cyclin D3 = CDK6/Cyclin D3 (Homo sapiens (Human), UniProt Q00534); experiment: CDK6/Cyclin D3 ADP-Glo Kinase Assay; format: biochemical; details: 100 uM ATP, read-out: CDK6/ CyclinD3 IC50
In short: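 ADP-Glo luminescence measured ADP produced by CDK6/Cyclin D3 in a 90-min room-temperature reaction started with ATP-containing substrate, after 30-min enzyme–inhibitor pre-incubation. Fractional velocity was plotted against inhibitor concentration and fitted to a four-parameter IC50 model.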

CDK1/Cyclin B1 = CDK1/Cyclin B1 (Homo sapiens (Human), UniProt P06493); experiment: CDK1/Cyclin B1 ADP-Glo Kinase Assay; format: biochemical; details: ADP-Glo, 80 uM ATP; read-out: CDK1 Cyclin B1 IC50
In short: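 ADP-Glo luminescent readout of ADP production, with IC50 fitted by a four-parameter equation to fractional velocity against inhibitor concentration. Reaction started with ATP-containing substrate after a 30-minute enzyme–inhibitor pre-incubation and stopped after 90 minutes, both at room temperature.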

CDK6/Cyclin D3, sequence (Q00534 whole entry): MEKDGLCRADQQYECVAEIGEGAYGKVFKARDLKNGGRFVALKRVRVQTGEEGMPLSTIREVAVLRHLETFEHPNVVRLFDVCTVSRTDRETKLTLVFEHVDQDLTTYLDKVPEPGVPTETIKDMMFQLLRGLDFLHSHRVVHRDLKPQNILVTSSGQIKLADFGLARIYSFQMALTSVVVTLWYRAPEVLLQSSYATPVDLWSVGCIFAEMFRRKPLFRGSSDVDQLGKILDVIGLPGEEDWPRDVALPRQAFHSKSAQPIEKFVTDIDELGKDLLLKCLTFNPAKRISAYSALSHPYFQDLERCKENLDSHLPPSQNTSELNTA
CDK6/Cyclin D3, sequence (P30281 whole entry partner): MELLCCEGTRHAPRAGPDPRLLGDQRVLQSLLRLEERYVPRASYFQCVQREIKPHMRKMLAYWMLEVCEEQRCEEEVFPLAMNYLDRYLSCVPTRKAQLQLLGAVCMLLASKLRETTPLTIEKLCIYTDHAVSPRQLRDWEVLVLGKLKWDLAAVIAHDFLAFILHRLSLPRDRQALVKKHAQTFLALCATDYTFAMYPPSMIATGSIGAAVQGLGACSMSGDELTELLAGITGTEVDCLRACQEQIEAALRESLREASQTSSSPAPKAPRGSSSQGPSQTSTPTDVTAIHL
CDK4/Cyclin D1, sequence (P11802 whole entry): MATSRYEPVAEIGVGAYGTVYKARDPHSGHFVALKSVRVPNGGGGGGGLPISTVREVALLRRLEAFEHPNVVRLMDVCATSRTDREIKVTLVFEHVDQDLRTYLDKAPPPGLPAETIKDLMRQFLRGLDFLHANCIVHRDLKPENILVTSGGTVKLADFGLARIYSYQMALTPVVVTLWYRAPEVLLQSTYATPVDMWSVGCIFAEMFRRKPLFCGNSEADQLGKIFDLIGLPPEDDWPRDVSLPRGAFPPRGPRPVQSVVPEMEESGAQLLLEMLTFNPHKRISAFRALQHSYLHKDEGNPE
CDK4/Cyclin D1, sequence (P24385 whole entry partner): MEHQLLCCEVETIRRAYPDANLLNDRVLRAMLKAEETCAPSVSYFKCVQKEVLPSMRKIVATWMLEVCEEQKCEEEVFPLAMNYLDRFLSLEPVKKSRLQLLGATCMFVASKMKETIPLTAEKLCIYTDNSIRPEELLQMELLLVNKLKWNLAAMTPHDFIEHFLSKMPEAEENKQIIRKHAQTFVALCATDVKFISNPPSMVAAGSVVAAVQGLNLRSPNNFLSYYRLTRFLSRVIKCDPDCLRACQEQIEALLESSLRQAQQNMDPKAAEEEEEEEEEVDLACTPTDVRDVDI
CDK1/Cyclin B1, sequence (P06493 whole entry): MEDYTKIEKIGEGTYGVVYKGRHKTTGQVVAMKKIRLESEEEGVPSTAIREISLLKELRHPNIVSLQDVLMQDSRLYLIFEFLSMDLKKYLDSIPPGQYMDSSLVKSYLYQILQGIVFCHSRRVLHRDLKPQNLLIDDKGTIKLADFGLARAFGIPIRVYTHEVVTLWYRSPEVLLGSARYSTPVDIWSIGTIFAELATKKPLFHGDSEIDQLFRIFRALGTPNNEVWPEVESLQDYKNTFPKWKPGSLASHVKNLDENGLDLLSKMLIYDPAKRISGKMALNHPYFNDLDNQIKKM
CDK1/Cyclin B1, sequence (P14635 whole entry partner): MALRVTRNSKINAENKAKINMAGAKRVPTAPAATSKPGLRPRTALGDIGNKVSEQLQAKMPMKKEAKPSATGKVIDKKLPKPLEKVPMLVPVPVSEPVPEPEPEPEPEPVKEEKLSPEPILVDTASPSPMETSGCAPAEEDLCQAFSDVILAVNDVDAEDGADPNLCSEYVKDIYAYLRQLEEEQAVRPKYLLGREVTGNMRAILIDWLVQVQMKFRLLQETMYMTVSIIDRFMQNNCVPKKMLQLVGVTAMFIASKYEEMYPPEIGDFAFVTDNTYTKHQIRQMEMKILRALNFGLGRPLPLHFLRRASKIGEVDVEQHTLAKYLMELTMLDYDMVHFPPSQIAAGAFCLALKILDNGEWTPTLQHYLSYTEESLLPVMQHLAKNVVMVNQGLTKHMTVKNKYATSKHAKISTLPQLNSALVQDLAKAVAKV

IC50 (OVCAR-3 cells)	IC50 (CDK4/Cyclin D1)	IC50 (MCF-7 cells)	IC50 (CDK2/Cyclin E1)	IC50 (CDK6/Cyclin D3)	IC50 (CDK1/Cyclin B1)	SMILES
500 to 2000 nM	< 200 nM	500 to 2000 nM	< 200 nM	< 200 nM	< 200 nM	Cc1cc2cnc(NC3CCN(S(=O)(=O)C4CC4)CC3)nc2c(N2CCC(OC(F)F)C2)n1 (stereo not drawn) [Compound 58, N-(1-(cyclopropylsulfonyl)piperidin-4-yl)-8-(3-(difluoromethoxy)pyrrolidin-1-yl)-6-methylpyrido[3,4-d]pyrimidin-2-amine]
500 to 2000 nM	< 200 nM	500 to 2000 nM	< 200 nM	< 200 nM	500 to 2000 nM	Cc1cc2cnc(NC3CCN(S(=O)(=O)C4(C)CC4)CC3)nc2c(N2CCC3(CN(C)C3)C2)n1 [Compound 59, 6-methyl-8-(2-methyl-2,6-diazaspiro[3.4]octan-6-yl)-N-(1-((1-methylcyclopropyl)sulfonyl)piperidin-4-yl)pyrido[3,4-d]pyrimidin-2-amine]
500 to 2000 nM	< 200 nM	500 to 2000 nM	< 200 nM	< 200 nM	< 200 nM	Cc1cc2cnc(NC3CCN(S(=O)(=O)C4CC4)CC3)nc2c(N2CC3(CCNCC3(F)F)C2)n1 [Compound 61, N-(1-(cyclopropylsulfonyl)piperidin-4-yl)-8-(5,5-difluoro-2,7-diazaspiro[3.5]nonan-2-yl)-6-methylpyrido[3,4-d]pyrimidin-2-amine]
> 2000 nM	500 to 2000 nM	> 2000 nM	200 to 500 nM	> 2000 nM	> 2000 nM	Cc1cc2cnc(NC3CCN(S(=O)(=O)C4(C)CC4)CC3)nc2c(C2CC(C)(O)C2)n1 (stereo not drawn) [Compound 63, 1-methyl-3-(6-methyl-2-((1-((1-methylcyclopropyl)sulfonyl)piperidin-4-yl)amino)pyrido[3,4-d]pyrimidin-8-yl)cyclobutan-1-ol]
> 2000 nM	< 200 nM	> 2000 nM	< 200 nM	200 to 500 nM	500 to 2000 nM	COCCN1CC2(C1)CN(c1nc(C3CC3)cc3cnc(NC4CCN(S(=O)(=O)CC5CCC5)CC4)nc13)C2 [Compound 64, N-(1-((cyclobutylmethyl)sulfonyl)piperidin-4-yl)-6-cyclopropyl-8-(6-(2-methoxyethyl)-2,6-diazaspiro[3.3]heptan-2-yl)pyrido[3,4-d]pyrimidin-2-amine]
200 to 500 nM	< 200 nM	200 to 500 nM	< 200 nM	< 200 nM	< 200 nM	CS(=O)(=O)N1CCC(Nc2ncc3cc(C(F)F)nc(N4CC5(CNCCC5(F)F)C4)c3n2)CC1 [Compound 65, 8-(9,9-difluoro-2,6-diazaspiro[3.5]nonan-2-yl)-6-(difluoromethyl)-N-(1-(methylsulfonyl)piperidin-4-yl)pyrido[3,4-d]pyrimidin-2-amine]
500 to 2000 nM	< 200 nM	500 to 2000 nM	< 200 nM	< 200 nM	500 to 2000 nM	Cc1cc2cnc(NC3CCN(S(=O)(=O)C4CC4)CC3)nc2c(N2CC3(CC(O)C3)C2)n1 [Compound 66, 2-(2-((1-(cyclopropylsulfonyl)piperidin-4-yl)amino)-6-methylpyrido[3,4-d]pyrimidin-8-yl)-2-azaspiro[3.3]heptan-6-ol]
> 2000 nM	< 200 nM	> 2000 nM	< 200 nM	200 to 500 nM	200 to 500 nM	Cc1cc2cnc(NC3CCN(S(=O)(=O)CCC4(C)CC4)CC3)nc2c(N2CC(F)(F)C3(CNC3)C2)n1 [Compound 67, 8-(8,8-difluoro-2,6-diazaspiro[3.4]octan-6-yl)-6-methyl-N-(1-((2-(1-methylcyclopropyl)ethyl)sulfonyl)piperidin-4-yl)pyrido[3,4-d]pyrimidin-2-amine]
500 to 2000 nM	< 200 nM	500 to 2000 nM	< 200 nM	< 200 nM	< 200 nM	CS(=O)(=O)N1CCC(Nc2ncc3cc(C4CC4)nc(C4CC5(CNCCO5)C4)c3n2)CC1 (stereo not drawn) [Compound 70, 6-cyclopropyl-N-(1-(methylsulfonyl)piperidin-4-yl)-8-(5-oxa-8-azaspiro[3.5]nonan-2-yl)pyrido[3,4-d]pyrimidin-2-amine]
> 2000 nM	< 200 nM	> 2000 nM	< 200 nM	< 200 nM	200 to 500 nM	COC1CC2(C1)CN(c1nc(C)cc3cnc(NC4CCN(S(=O)(=O)C5CC5)CC4)nc13)C2 [Compound 71, N-(1-(cyclopropylsulfonyl)piperidin-4-yl)-8-(6-methoxy-2-azaspiro[3.3]heptan-2-yl)-6-methylpyrido[3,4-d]pyrimidin-2-amine]
> 2000 nM	200 to 500 nM	> 2000 nM	< 200 nM	200 to 500 nM	500 to 2000 nM	Cc1cc2cnc(NC3CCN(S(=O)(=O)C4CC4)CC3)nc2c(N2CC(N3CC(F)C3)C2)n1 [Compound 72, N-(1-(cyclopropylsulfonyl)piperidin-4-yl)-8-(3-fluoro-[1,3′-biazetidin]-l′-yl)-6-methylpyrido[3,4-d]pyrimidin-2-amine]
> 2000 nM	< 200 nM	> 2000 nM	< 200 nM	200 to 500 nM	500 to 2000 nM	Cc1cc2cnc(NC3CCN(S(C)(=O)=O)CC3)nc2c(N2CC3(CC(O)C3)C2)n1 [Compound 73, 2-(6-methyl-2-((1-(methylsulfonyl)piperidin-4-yl)amino)pyrido[3,4-d]pyrimidin-8-yl)-2-azaspiro[3.3]heptan-6-ol]
> 2000 nM	200 to 500 nM	> 2000 nM	< 200 nM	200 to 500 nM	500 to 2000 nM	Cc1cc2cnc(NC3CCN(S(=O)(=O)C4CC4)CC3)nc2c(N2CC(CS(C)(=O)=O)C2)n1 [Compound 74, N-(1-(cyclopropylsulfonyl)piperidin-4-yl)-6-methyl-8-(3-((methylsulfonyl)methyl)azetidin-1-yl)pyrido[3,4-d]pyrimidin-2-amine]
> 2000 nM	< 200 nM	> 2000 nM	< 200 nM	< 200 nM	> 2000 nM	COC1CC2(C1)CN(c1nc(C3CC3)cc3cnc(NC4CCN(S(C)(=O)=O)CC4)nc13)C2 [Compound 75, 6-cyclopropyl-8-(6-methoxy-2-azaspiro[3.3]heptan-2-yl)-N-(1-(methylsulfonyl)piperidin-4-yl)pyrido[3,4-d]pyrimidin-2-amine]
> 2000 nM	< 200 nM	500 to 2000 nM	< 200 nM	< 200 nM	200 to 500 nM	COC1CC2(C1)CN(c1nc(C)cc3cnc(NC4CCN(S(C)(=O)=O)CC4)nc13)C2 [Compound 76, 8-(6-methoxy-2-azaspiro[3.3]heptan-2-yl)-6-methyl-N-(1-(methylsulfonyl)piperidin-4-yl)pyrido[3,4-d]pyrimidin-2-amine]
> 2000 nM	< 200 nM	> 2000 nM	< 200 nM	< 200 nM	200 to 500 nM	Cc1cc2cnc(NC3CCN(S(C)(=O)=O)CC3)nc2c(N2CC3(CCC(=O)N3)C2)n1 [Compound 77, 2-(6-methyl-2-((1-(methylsulfonyl)piperidin-4-yl)amino)pyrido[3,4-d]pyrimidin-8-yl)-2,5-diazaspiro[3.4]octan-6-one]
500 to 2000 nM	< 200 nM	500 to 2000 nM	< 200 nM	200 to 500 nM	200 to 500 nM	Cc1cc2cnc(NC3CCN(S(=O)(=O)C4CC4)CC3)nc2c(N2CC3(C2)CC(C)(O)C3)n1 [Compound 78, 2-(2-((1-(cyclopropylsulfonyl)piperidin-4-yl)amino)-6-methylpyrido[3,4-d]pyrimidin-8-yl)-6-methyl-2-azaspiro[3.3]heptan-6-ol]
500 to 2000 nM	< 200 nM	> 2000 nM	< 200 nM	200 to 500 nM	200 to 500 nM	Cc1cc2cnc(NC3CCN(S(C)(=O)=O)CC3)nc2c(N2CC3(C2)CC(C)(O)C3)n1 [Compound 79, 6-methyl-2-(6-methyl-2-((1-(methylsulfonyl)piperidin-4-yl)amino)pyrido[3,4-d]pyrimidin-8-yl)-2-azaspiro[3.3]heptan-6-ol]
> 2000 nM	< 200 nM	> 2000 nM	< 200 nM	< 200 nM	500 to 2000 nM	COCCN1CC2(CC(c3nc(C4CC4)cc4cnc(NC5CCN(S(=O)(=O)CC6CCC6)CC5)nc34)C2)C1 [Compound 80, N-(1-((cyclobutylmethyl)sulfonyl)piperidin-4-yl)-6-cyclopropyl-8-(2-(2-methoxyethyl)-2-azaspiro[3.3]heptan-6-yl)pyrido[3,4-d]pyrimidin-2-amine]
